According to paper PMC7105882, “Plasmodium Perforin-Like Protein Pores on the Host Cell Membrane Contribute in Its Multistage Growth and Erythrocyte Senescence” (Frontiers in Cellular and Infection Microbiology, 2020):

Target: T1, PfPLP2 (rPMD2, pan-MACPF domain of perforin-like protein 2) (Plasmodium falciparum, UniProt Q8I5P0)
T1 construct: gene PF3D7_1216700; rPMD2, recombinant His-tagged MACPF domain of PfPLP2
Assay: inhibition of erythrocyte lysis by purified rPMD2; thermal protection of purified rPMD2 (modified CETSA)
Format: biochemical

T1 sequence (Q8I5P0 entry or part of it): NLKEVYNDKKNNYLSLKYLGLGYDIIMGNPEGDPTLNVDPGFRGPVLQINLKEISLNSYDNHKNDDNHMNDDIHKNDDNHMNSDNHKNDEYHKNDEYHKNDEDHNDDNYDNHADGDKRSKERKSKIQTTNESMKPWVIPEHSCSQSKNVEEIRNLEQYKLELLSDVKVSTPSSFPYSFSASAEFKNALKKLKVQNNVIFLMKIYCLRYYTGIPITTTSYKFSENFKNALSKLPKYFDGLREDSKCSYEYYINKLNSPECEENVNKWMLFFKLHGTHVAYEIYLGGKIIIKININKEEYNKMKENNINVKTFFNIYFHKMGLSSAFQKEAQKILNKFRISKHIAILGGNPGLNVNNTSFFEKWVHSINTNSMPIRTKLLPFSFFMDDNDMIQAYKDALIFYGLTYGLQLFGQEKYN

| Compound | inhibition of erythrocyte lysis by purified rPMD2; thermal protection of purifie |
| --- | --- |
| O=C1NC(=S)N/C1=C\c1csc2ccccc12 [C02, (Z)-5-(benzo[b]thiophen-3-ylmethylene)-2-thioxoimidazolidin-4-one] | C01 and C02 could inhibit the activity of both rPMD1 and rPMD2 in the sub-micromolar range |
| Cn1cc(/C=C2\NC(=S)NC2=O)c2ccccc21 [C01, (Z)-5-((1-methyl-1H-indol-3-yl)methylene)-2-thioxoimidazolidin-4-one] | C01 and C02 could inhibit the activity of both rPMD1 and rPMD2 in the sub-micromolar range |
